Laboratory results as given in patent publication US20100184213A1, “APOCRINE CELL LINE” (priority 2007, published 2010).

How the values were obtained:
[1] = test system: primary apocrine cultures; test: Short circuit current (Isc) in Ussing chamber, primary apocrine cultures on Transwells; assay type: cell-based, human; conditions: for Peak agonist Isc response, Control / Peak agonist Isc response after amiloride pre-treatment, Control / Peak agonist Isc response, Chloride-free / Peak agonist Isc response after amiloride pre-treatment, Chloride-free / ΔIsc (change of resting short circuit current): primary apocrine; for Peak agonist Isc response, Control / Peak agonist Isc response after amiloride pre-treatment, Control: chloride-containing buffer; for Peak agonist Isc response, Control / Peak agonist Isc response, Chloride-free: Carbachol 20 μM; for Peak agonist Isc response, Control / Peak agonist Isc response after amiloride pre-treatment, Control / Peak agonist Isc response, Chloride-free / Peak agonist Isc response after amiloride pre-treatment, Chloride-free: Histamine 200 μM, ATP 100 μM; for Peak agonist Isc response after amiloride pre-treatment, Control / Peak agonist Isc response after amiloride pre-treatment, Chloride-free: Carbachol 200 μM, Isoprenaline ≧1 μM, LBK 170 nM; for ΔIsc (change of resting short circuit current): amiloride 10 μM apical, furosemide 1 mM basolateral
Experimental: (§1) After 13-18 days, confluent ASG5 cultures were passaged onto Transwell collagen-coated permeable supports (0.33 cm^2 area, Costar, cat. no. 3495, High Wycombe, Bucks, UK). This involved incubation in 2% EDTA for 20 minutes, followed by trypsin (0.5%)-EDTA (0.2%) for approximately five minutes. 3×10^5 cells were transferred onto each Transwell supplemented with WEM. The Transwell supports were suspended in 24-well plates in 0.6 ml of the same medium. For primary cultures, only first passage cells were used in experiments. The medium bathing cultures on Transwells was changed every two days.
(§2) Transepithelial resistance (TER) across epithelia on Transwells was monitored using ‘chopstick’ electrodes (WPI, Alresford, Hants, UK) connected to an ohmmeter. The TER was estimated by subtracting the measurement for a moistened filter blank. At peak TER, the Transwell supports were mounted in an Ussing Chamber. Epithelia were bathed in a modified Krebs buffer, oxygenated and maintained at 37° C., pH 7.4, with 95% O2/5% CO2. The buffer consisted of (mM): NaCl, 117; KCl, 4.7; CaCl2, 1.5; MgSO4, 1.2; NaHCO3, 25; and glucose, 11.1. Voltage and current electrodes (calomel and silver/silver chloride respectively, ABB Kent Taylor, Stonehouse, Glos, UK), connected to a voltage/current clamp were extended into the bath via bridges containing agar dissolved in 3 M potassium chloride.
(§3) Voltage electrodes were balanced in the absence of a Transwell and fluid resistance between the voltage electrodes was compensated for by the injection of an arbitrary DC current. After mounting a Transwell the epithelium was short-circuited, the current allowed to stabilise, typically for 15 minutes. Given the rarity of apocrine material, drugs were typically added in succession as disclosed by Brayden et al (1988) J. Physiol, 405: 657-675, Pedersen et al (1992) Exp. Physiol, 77; 863-871, and Shen et al, (1994) Am. J. Physiol, 266: L493-501 and changes in short circuit current (I^sc) recorded. The duration of experiments was typically 15-60 min. TER was estimated using Ohm's Law, routinely by clamping the voltage at ±10 mV and measuring the current required to achieve this. Unless otherwise stated all drugs listed in the legend were added to the basolateral side, except for amiloride that was added to the apical side. Amiloride is an inhibitor of the epithelial Na^+ channel (ENaC) and the Na^+/H^+ exchanger.
(§4) Chloride substitution experiments were carried out in Krebs buffer in which sodium gluconate was substituted for NaCl, potassium gluconate for KCl and CaSO4 for CaCl2. Glucose-free experiments were carried out with 11.1 mM mannitol as a replacement to maintain osmolality. Experiments in which barium was used as an inhibitor of potassium channels were carried out in the absence of sulphate ions, such that MgCl2 replaced MgSO4.

[2] = test system: proliferating apocrine cultures (ASG5); test: Short circuit current (Isc) in Ussing chamber, proliferating apocrine cultures on Transwells; assay type: cell-based, human; conditions: for Peak agonist Isc response, Control / Peak agonist Isc response, Chloride-free: proliferating (ASG5), Carbachol 20 μM; for Peak agonist Isc response, Control / Peak agonist Isc response after amiloride pre-treatment, Control: chloride-containing buffer; for Peak agonist Isc response, Control / Peak agonist Isc response, Chloride-free / Peak agonist Isc response after amiloride pre-treatment, Control / Peak agonist Isc response after amiloride pre-treatment, Chloride-free: Histamine 200 μM, ATP 100 μM; for Peak agonist Isc response after amiloride pre-treatment, Control / Peak agonist Isc response after amiloride pre-treatment, Chloride-free / ΔIsc (change of resting short circuit current): proliferating apocrine; for Peak agonist Isc response after amiloride pre-treatment, Control / Peak agonist Isc response after amiloride pre-treatment, Chloride-free: Carbachol 200 μM, Isoprenaline ≧1 μM, LBK 170 nM; for ΔIsc (change of resting short circuit current): furosemide 1 mM basolateral
Experimental: as §1, §2, §3, §4

[3] = test system: eccrine sweat gland cells; test: Short circuit current (Isc) in Ussing chamber, primary eccrine sweat gland cells; assay type: cell-based; conditions: amiloride 10 μM apical
[4] = test system: primary cultures of apocrine secretory coils; test: TPA treatment of primary cultures of apocrine secretory coils in MEGM; assay type: cell-based, human; conditions: TPA 250 nM in MEGM; 3-4 days after addition
Experimental: A proliferating apocrine cell line was derived from primary cultures of apocrine secretory coils. After 7 days culture in MEGM, the potent phorbol ester, TPA (phorbol-12-myristate-13 acetate; ex Calbiochem, Nottingham, UK) was included in the medium at a concentration of 250 nM. […] Commonly, the ester comprises at least aliphatic substituent particularly suitably at the 12 and/or 13 positions, such as a long chain alkyl (C7 to C24) and optionally also a short chain alkyl (C2 to C6).
However, the upper differentiated layers were removed by repeated washing to leave a proliferative monolayer of cells still attached to the flask. Cells of the proliferative layer were passaged into 96 well plates to generate clonal cell lines. Cells were maintained, passaged and continued to grow in MEGM containing TPA for approximately 2 months. After this period cells were cultured in MEGM alone and monitored for continued proliferation. Initially, many subclones continued to grow, but by the end of the next 10 passages, the majority had begun to senesce. One culture, in particular, ASG5, continued to grow and has now been maintained in culture, proliferating over more than 40 passages with no signs of a reduction in growth rate. […] This culture continues to proliferate in the absence of TPA, can survive cryopreservation and is considered to be stable.

## Nc1ncnc2c1ncn2[C@@H]1O[C@H](COP(=O)(O)OP(=O)(O)OP(=O)(O)O)[C@@H](O)[C@H]1O [ATP, Adenosine triphosphate]
[1]
  Peak agonist Isc response, Control: 7.4 ± 1.8 μA cm^−2
  Peak agonist Isc response after amiloride pre-treatment, Control: 4.9 ± 0.7 μA cm^−2
[1]; chloride-free buffer
  Peak agonist Isc response, Chloride-free: 2.9 ± 0.9 μA cm^−2
  Peak agonist Isc response after amiloride pre-treatment, Chloride-free: 4.3 ± 2.4 μA cm^−2
[2]
  Peak agonist Isc response, Control: 6.3 ± 1.8 μA cm^−2
  Peak agonist Isc response after amiloride pre-treatment, Control: 1.8 ± 0.3 μA cm^−2
[2]; chloride-free buffer
  Peak agonist Isc response, Chloride-free: 4.0 ± 0.5 μA cm^−2
  Peak agonist Isc response after amiloride pre-treatment, Chloride-free: 0.8 ± 0.2 μA cm^−2

## N=C(N)NC(=O)c1nc(Cl)c(N)nc1N [Amiloride]
[1]; amiloride 10 μM, chloride-free buffer, primary cultures
  reduction of basal Isc under chloride-free conditions: 3.6 μA cm^−2
[1]
  ΔIsc (change of resting short circuit current): −6.0 ± 0.9 μA cm^−2
[3]
  ΔIsc (change of resting short circuit current): −7.1 ± 0.7 μA cm^−2
[2]; Homo sapiens, apical amiloride, read-out: IC50 for amiloride (dose response curves, resting Isc)
  IC50: 2 to 4 µM
[2]; amiloride 10 μM apical, CCh 20 μM
  carbachol stimulation of Isc after amiloride pre-treatment (FIG. 4A versus FIG. 3): reduced
[2]; amiloride 10 μM apical, CCh 20 μM, His 200 μM, ATP 100 μM basolateral
  effect of amiloride pre-treatment on peak Isc responses to CCh, His and ATP (FIG. 2): significantly reduced
[2]; amiloride 10 μM, chloride-free buffer, proliferating cultures
  reduction of basal Isc under chloride-free conditions: 2.5 μA cm^−2
[2]; apically applied amiloride 10 μM, n=20, P<0.001
  reduction of resting Isc: 4.5±1.0 μA cm^−2
[2]; amiloride 10 μM apical
  ΔIsc (change of resting short circuit current): −4.2 ± 1.0 μA cm^−2

## C[N+](C)(C)CCOC(N)=O [Carbachol]
[1]
  Peak agonist Isc response, Control: 3.9 ± 0.7 μA cm^−2
  Peak agonist Isc response after amiloride pre-treatment, Control: 6.3 ± 1.4 μA cm^−2
[1]; chloride-free buffer
  Peak agonist Isc response, Chloride-free: 0.7 ± 0.6 μA cm^−2
  Peak agonist Isc response after amiloride pre-treatment, Chloride-free: 1.7 ± 1.2 μA cm^−2
[2]
  Peak agonist Isc response, Control: 4.0 ± 0.7 μA cm^−2
  Peak agonist Isc response after amiloride pre-treatment, Control: 2.4 ± 0.6 μA cm^−2
[2]; chloride-free buffer
  Peak agonist Isc response, Chloride-free: 3.0 ± 0.8 μA cm^−2
  Peak agonist Isc response after amiloride pre-treatment, Chloride-free: 1.3 ± 0.3 μA cm^−2

## NS(=O)(=O)c1cc(C(=O)O)c(NCc2ccco2)cc1Cl [Furosemide]
[1]; 90 µM
  Inhibition by furosemide of agonist response, ΔIsc: 0.8 ± 0.2 μA cm^−2
[1]; furosemide 90 μM, agonist ATP 100 μM, primary
  Inhibition by furosemide of agonist response, ΔIsc: −2.6 ± 0.5 μA cm^−2
[1]; furosemide 90 μM, agonist Carbachol ≧20 μM, primary
  Inhibition by furosemide of agonist response, ΔIsc: −2.0 ± 0.5 μA cm^−2
[1]; furosemide 90 μM, agonist Histamine 200 μM, primary
  Inhibition by furosemide of agonist response, ΔIsc: −1.3 ± 0.2 μA cm^−2
[1]; primary apocrine cultures
  agonist Isc responses on addition of furosemide after agonist stimulation: rapid reduction in responses
[1]
  ΔIsc (change of resting short circuit current): −0.5 ± 0.2 μA cm^−2
[2]; 90 µM
  Inhibition by furosemide of agonist response, ΔIsc: −1.2 ± 0.3 μA cm^−2
[2]; furosemide 90 μM, agonist ATP 100 μM, proliferating
  Inhibition by furosemide of agonist response, ΔIsc: −1.2 ± 0.3 μA cm^−2
[2]; furosemide 90 μM, agonist Carbachol ≧20 μM, proliferating
  Inhibition by furosemide of agonist response, ΔIsc: −1.1 ± 0.4 μA cm^−2
[2]; furosemide 90 μM, agonist Histamine 200 μM, proliferating
  Inhibition by furosemide of agonist response, ΔIsc: −1.0 ± 0.4 μA cm^−2
[2]; furosemide 1 mM pre-treatment, CCh 20 μM
  magnitude of Isc response to carbachol after furosemide pre-treatment (FIG. 4B versus FIG. 3): reduces the magnitude of response
[2]; amiloride 10 μM apical
  ΔIsc (change of resting short circuit current): −0.8 ± 0.3 μA cm^−2
[2]; transformed apocrine cultures
  agonist Isc responses on addition of furosemide after agonist stimulation: rapid reduction in responses

## NCCc1c[nH]cn1 [Histamine]
[1]
  Peak agonist Isc response, Control: 6.4 ± 1.3 μA cm^−2
  Peak agonist Isc response after amiloride pre-treatment, Control: 4.2 ± 0.5 μA cm^−2
[1]; chloride-free buffer
  Peak agonist Isc response, Chloride-free: 1.7 ± 0.5 μA cm^−2
  Peak agonist Isc response after amiloride pre-treatment, Chloride-free: 2.4 ± 1.4 μA cm^−2
[2]
  Peak agonist Isc response, Control: 4.8 ± 1.3 μA cm^−2
  Peak agonist Isc response after amiloride pre-treatment, Control: 1.9 ± 0.4 μA cm^−2
[2]; chloride-free buffer
  Peak agonist Isc response, Chloride-free: 3.3 ± 0.8 μA cm^−2
  Peak agonist Isc response after amiloride pre-treatment, Chloride-free: 1.0 ± 0.2 μA cm^−2

## CC(C)NCC(O)c1ccc(O)c(O)c1 (stereo not shown) [Isoprenaline]
[1]
  Peak agonist Isc response after amiloride pre-treatment, Control: 1.8 ± 0.4 μA cm^−2
[1]; chloride-free buffer
  Peak agonist Isc response after amiloride pre-treatment, Chloride-free: 0.7 ± 0.3 μA cm^−2
[2]
  Peak agonist Isc response after amiloride pre-treatment, Control: 1.8 ± 0.4 μA cm^−2
[2]; chloride-free buffer
  Peak agonist Isc response after amiloride pre-treatment, Chloride-free: 0.8 ± 0.2 μA cm^−2

## CCCCCCCCCCCCCC(=O)O[C@@H]1[C@@H](C)[C@@]2(O)[C@@H](C=C(CO)C[C@]3(O)C(=O)C(C)=C[C@@H]23)[C@@H]2C(C)(C)[C@]12OC(C)=O [TPA, phorbol-12-myristate-13 acetate]
[4]
  effect on culture morphology (multilayering): induced premature multilayering

## L-bradykinin (RPPGFSPFR; Bradykinin; UniProt P01042 381-389, looked up) [LBK, agonist added basolaterally]
[1]
  Peak agonist Isc response after amiloride pre-treatment, Control: 2.0 ± 0.5 μA cm^−2
[1]; chloride-free buffer
  Peak agonist Isc response after amiloride pre-treatment, Chloride-free: 0.6 ± 0.4 μA cm^−2
[2]
  Peak agonist Isc response after amiloride pre-treatment, Control: 1.6 ± 0.3 μA cm^−2
[2]; chloride-free buffer
  Peak agonist Isc response after amiloride pre-treatment, Chloride-free: 0.9 ± 0.3 μA cm^−2
